Several values for one entry are separate records, joined by “and”; a condition that tells them apart may be missing. Equal entries are not always repeated. ± gives the uncertainty stated by the source.
Assay: xn = mol fraction of the nth substance listed

CC[n+]1ccn(C)c1.O=S(=O)([O-])O + CC(C)[C@H](N)C(=O)O + O
viscosity [mPa·s], 100 kPa
Details	293.15 K	298.15 K	303.15 K	308.15 K	313.15 K
x2 = 0, x1 = 0.0005421	1.046 ± 0.033	0.929 ± 0.032	0.824 ± 0.031	0.75 ± 0.031	0.678 ± 0.031
x2 = 0, x1 = 0.0009056	1.068 ± 0.033	0.949 ± 0.032	0.843 ± 0.031	0.759 ± 0.031	0.684 ± 0.031
x2 = 0, x1 = 0.001263	1.073 ± 0.032	0.966 ± 0.032	0.866 ± 0.032	0.78 ± 0.031	0.697 ± 0.031
x2 = 0.0003674, x1 = 0.0009053	1.09 ± 0.032	0.958 ± 0.032	0.851 ± 0.031	0.767 ± 0.031	0.691 ± 0.031
x2 = 0.0003913, x1 = 0.0005419	1.068 ± 0.033	0.938 ± 0.032	0.832 ± 0.031	0.758 ± 0.031	0.686 ± 0.031
x2 = 0.0003924, x1 = 0.001263	1.096 ± 0.032	0.975 ± 0.032	0.875 ± 0.032	0.787 ± 0.031	0.705 ± 0.031
x2 = 0.0007372, x1 = 0.001262	1.117 ± 0.032	0.983 ± 0.032	0.882 ± 0.032	0.794 ± 0.031	0.711 ± 0.031
x2 = 0.000749, x1 = 0.0009049	1.112 ± 0.033	0.966 ± 0.032	0.859 ± 0.031	0.774 ± 0.031	0.698 ± 0.031
x2 = 0.0007642, x1 = 0.0005417	1.09 ± 0.033	0.947 ± 0.032	0.84 ± 0.031	0.765 ± 0.031	0.693 ± 0.031
x2 = 0.001083, x1 = 0.0005415	1.108 ± 0.033	0.954 ± 0.032	0.847 ± 0.031	0.771 ± 0.031	0.699 ± 0.031
x2 = 0.001089, x1 = 0.0009046	1.132 ± 0.033	0.974 ± 0.032	0.866 ± 0.031	0.781 ± 0.031	0.704 ± 0.031
x2 = 0.001118, x1 = 0.001262	1.139 ± 0.032	0.992 ± 0.032	0.89 ± 0.032	0.802 ± 0.031	0.718 ± 0.031
x2 = 0.001457, x1 = 0.001262	1.159 ± 0.033	1 ± 0.032	0.897 ± 0.032	0.808 ± 0.031	0.725 ± 0.031
x2 = 0.001475, x1 = 0.0009042	1.155 ± 0.033	0.983 ± 0.032	0.874 ± 0.032	0.788 ± 0.031	0.711 ± 0.031
x2 = 0.001477, x1 = 0.0005413	1.131 ± 0.033	0.963 ± 0.032	0.855 ± 0.031	0.779 ± 0.031	0.706 ± 0.031
x2 = 0.001795, x1 = 0.0005411	1.149 ± 0.033	0.97 ± 0.032	0.861 ± 0.031	0.785 ± 0.031	0.712 ± 0.031
x2 = 0.001812, x1 = 0.0009039	1.175 ± 0.033	0.991 ± 0.032	0.881 ± 0.032	0.795 ± 0.031	0.717 ± 0.031
x2 = 0.001817, x1 = 0.001261	1.18 ± 0.033	1.008 ± 0.032	0.905 ± 0.032	0.816 ± 0.031	0.731 ± 0.031
x2 = 0.002249, x1 = 0.0005409	1.176 ± 0.033	0.98 ± 0.033	0.871 ± 0.032	0.794 ± 0.031	0.721 ± 0.031
x2 = 0.002256, x1 = 0.001261	1.206 ± 0.033	1.018 ± 0.035	0.915 ± 0.032	0.824 ± 0.031	0.739 ± 0.031
x2 = 0.002283, x1 = 0.0009035	1.203 ± 0.033	1.001 ± 0.033	0.891 ± 0.032	0.804 ± 0.031	0.726 ± 0.031

CCCC[n+]1ccn(C)c1.F[P-](F)(F)(F)(F)F + CC(C)=O
Details	electrical conductivity [S/m]	viscosity [mPa·s]
296.15 K, 101 kPa, x2 = 0	0.15 ± 0.02	–
296.15 K, 101 kPa, x2 = 0.9195	3.84 ± 0.38	–
298.15 K, 101 kPa, x2 = 0.4972	1.28 ± 0.15	14.7 ± 1.6
298.15 K, 101 kPa, x2 = 0.7839	2.86 ± 0.34	2.05 ± 0.28
298.15 K, 101.3 kPa, x2 = 0.4485	–	18.46 ± 0.49
298.15 K, 101.3 kPa, x2 = 0.6007	–	6.96 ± 0.17
298.15 K, 101.3 kPa, x2 = 0.8058	–	1.648 ± 0.042

CCCCCCCC(=O)[O-].CCCCCC[NH+](CCCCCC)CCCCCC + O
298.15 K, 101 kPa
Details	viscosity
x1 = 0.3915	15.08 ± 0.61 mPa·s and 15.76 ± 0.63 mPa·s
x1 = 0.7748	20.5 ± 0.85 mPa·s and 21.52 ± 0.9 mPa·s

CCCC[n+]1ccn(C)c1.O=S(=O)([N-]S(=O)(=O)C(F)(F)F)C(F)(F)F + CCCCO
298 K
Details	electrical conductivity [S/m]	viscosity [mPa·s]
100 kPa, x1 = 0.05	–	3.52 ± 0.026
100 kPa, x1 = 0.1	–	4.728 ± 0.042
100 kPa, x1 = 0.1998	–	6.745 ± 0.067
100 kPa, x1 = 0.2996	–	8.98 ± 0.11
100 kPa, x1 = 0.399	–	11.9 ± 0.16
100 kPa, x1 = 0.4991	–	15.1 ± 0.24
100 kPa, x1 = 0.5995	–	19.41 ± 0.34
100 kPa, x1 = 0.6984	–	24.48 ± 0.48
100 kPa, x1 = 0.7971	–	31.76 ± 0.69
100 kPa, x1 = 0.9005	–	39.89 ± 0.95
100 kPa, x1 = 1	–	49.7 ± 1.3
101 kPa, x2 = 0	–	50.4 ± 1.9
101 kPa, x2 = 0.2936	0.561 ± 0.064	–
101 kPa, x2 = 0.317	0.613 ± 0.064	–
101 kPa, x2 = 0.5053	0.668 ± 0.064	–
101 kPa, x2 = 0.6833	0.653 ± 0.064	–
101 kPa, x2 = 0.8349	0.418 ± 0.064	–
101 kPa, x2 = 0.8623	0.368 ± 0.064	–

CCCC[n+]1ccn(C)c1.O=S(=O)([N-]S(=O)(=O)C(F)(F)F)C(F)(F)F + CCCCCCCCCO
Details	viscosity [mPa·s]
298 K, 100 kPa, x1 = 1	49.7 ± 1.3

CCCCCCO + CCCCCCCC[n+]1ccc2ccccc2c1.O=S(=O)([N-]S(=O)(=O)C(F)(F)F)C(F)(F)F
Details	viscosity [mPa·s]
328.15 K, 101 kPa, x1 = 1	1.97 ± 0.02

CCOC(C)=O + CC[n+]1ccn(C)c1.O=S(=O)([N-]S(=O)(=O)C(F)(F)F)C(F)(F)F
Details	viscosity [mPa·s]
303.15 K, 100 kPa, x1 = 1	0.39

CN(C)C=O + CCCC[n+]1ccn(C)c1.F[B-](F)(F)F
Details	viscosity [mPa·s]
298.15 K, 101.33 kPa, x1 = 1	0.8 ± 0.16
333.15 K, 100 kPa, x2 = 0	0.559 ± 0.007

COCCOCCOCCOCCOC + CCCCCC[n+]1ccn(C)c1.O=S(=O)([N-]S(=O)(=O)C(F)(F)F)C(F)(F)F
Details	viscosity [mPa·s]
288.15 K, 100 kPa, x1 = 0.099	96 ± 2

CCCCC[P+](CC)(CC)CC.O=S(=O)([N-]S(=O)(=O)C(F)(F)F)C(F)(F)F + CCCCC[N+](CC)(CC)CC.O=S(=O)([N-]S(=O)(=O)C(F)(F)F)C(F)(F)F
101.3 kPa, x2 = 0
Details	viscosity [mPa·s]
283.15 K	203 ± 41
323.15 K	30.5 ± 6.1

CCCCCC(=O)O + CCCC[P+](CCCC)(CCCC)CCCC.[Br-]
Details	viscosity [mPa·s]
298 K, 100 kPa, x2 = 0.5	290

CCCC[n+]1ccn(C)c1.O=S(=O)([N-]S(=O)(=O)C(F)(F)F)C(F)(F)F + CC#N
Details	electrical conductivity, x1 = 0.0063 [S/m]	electrical conductivity, x1 = 0.01076 [S/m]	electrical conductivity, x2 = 0.661 [S/m]	electrical conductivity, x2 = 0.905 [S/m]	viscosity, x2 = 0 [mPa·s]	viscosity, x2 = 0.1534 [mPa·s]	viscosity, x2 = 0.2508 [mPa·s]	viscosity, x2 = 0.602 [mPa·s]	viscosity, x2 = 0.7518 [mPa·s]
294.5 K, 100 kPa	–	1.58 ± 0.16	–	–	–	–	–	–	–
298 K, 101 kPa	1.14 ± 0.1	–	2.25 ± 0.1	4.42 ± 0.18	50.4 ± 1.9	34.4 ± 1.9	25.4 ± 1.4	6.4 ± 0.3	2.73 ± 0.14

CCCCCCO + CCCC[n+]1ccn(C)c1.N#C[S-]
101 kPa, x1 = 1
Details	viscosity [mPa·s]
308.15 K	3.33 ± 0.01
338.15 K	1.57 ± 0.01
